Here are results for nine compounds from paper PMC7167990, “Therapeutic Effects of Atranorin towards the Proliferation of Babesia and Theileria Parasites” (Pathogens, 2020).

Broadly, the IC50 is the concentration that inhibits the measured activity by half.

A value given as a limit tells only on which side of the number the result lay.

One assay relates to B. microti. Conditions: B. microti in vivo; cited from earlier work.
For the next assay, the system named is MDBK cells. Put plainly: Cytotoxicity assay (CCK-8 cell viability). It is filed as cell-based, bovine. How it is done: (§1) Cultures of human foreskin fibroblast (HFF; HFF-1 ATCC® SCRC-1041™), Madin–Darby bovine kidney (MDBK; ECACC) and mouse embryonic fibroblast (NIH/3T3; ATCC® CRL-1658™) cells were retrieved from −80 °C stock and cultured continuously at 37 °C under atmosphere 5% CO2 in our laboratory. The NIH/3T3 and HFFs cells were maintained in Dulbecco Modified Eagle’s Medium (DMEM; Gibco, Grand Island, NY, USA), while MDBK cell line grown in Minimum Essential Medium Eagle (MEM; Gibco). Each medium was treated with 0.5% penicillin/streptomycin (Gibco), 10% inactivated fetal bovine serum and 2 mM glutamine. Every 72 to 96 h, the medium was replaced, and once 80% confluence was reached, the cell collection was performed by sub-culture protocol. To confirm the absence of mycoplasma contamination, 4,6-diamidino-2-phenylindole dihydrochloride stain (Sigma-Aldrich) was used.
(§2) The cell viability test was conducted in a 96-well plate as described elsewhere. Briefly, an aliquot of (100 µL) cells was implanted at a concentration of 5 × 10^4 cells/mL in DMEM or MEM with fetal bovine serum and incubated overnight under atmosphere 5% CO2 at 37 °C for attachment. Using two-fold dilutions, aliquots (10 µL) of drugs were added in triplicate per well to attain final concentrations of 50 to 1000 µM and further incubated for 24 h. The positive control wells containing cells mixed with the medium in 0.4% DMSO, whereas the negative control wells containing culture medium only. After a 24-h incubation, Cell Counting Kits-8 (CCK-8, 10 µL) was added to each well and then plate incubation was conducted for an additional 3 h and a microplate reader was used to assess the absorbance at 450 nm.

Another assay concerns B. bigemina. Put plainly: In vitro growth inhibition, Babesia fluorescent (SYBR Green I) assay. It is filed as cell-based. Conditions: 96 h, 4 days culture, mean of triplicate experiments. How it is done: (§3) Babesia parasite was incubated and maintained at 37 °C in a humidifying chamber under 5% CO2, 5% O2, and 90% N2 atmosphere using a microaerophilic stationary-phase culture for conducting the in vitro experiment. Briefly, Germany strain Babesia divergens was cultured in cattle RBCs in Roswell Park Memorial Institute 1640 (RPMI 1640; Sigma-Aldrich, St. Louis, MO, USA) medium replenished with 40% cattle serum, while culture medium 199 (M199; Sigma-Aldrich) was utilized for the Argentina strain B. bigemina and Texas strain B. bovis, and T. equi USDA strain cultured in cattle RBCs supplemented with 40% cattle serum and horse RBCs maintained in hypoxanthine (MP Biomedicals, Santa Ana, CA, USA; final concentration 13.6 μg/mL) and 40% horse serum, respectively. GIT medium complemented with 40% horse serum was used as a growth medium for the USDA strain of B. caballi cultured in horse RBCs. To ensure free-bacterial contamination, amphotericin B (0.15 μg/mL) (Sigma-Aldrich), streptomycin (60 U/mL) and penicillin G (60 U/mL) were added to all medium.
(§4) The Babesia fluorescent assay was carried out on the in vitro culture as previously reported elsewhere to assess the growth of the inhibitory effectiveness of ATR and the combination treatment with DA, CF, and AV. Briefly, in three separate trials, using two-fold dilution, different concentrations of ATR, DA, CF, and AV were prepared in the culture medium and added in 96-well plates in triplicate with 1% parasitemia for T. equi, B. divergens and B. caballi at 5% HCT, while for B. bigemina and B. bovis using 2.5% HCT. The drug combined efficacy was conducted at the same time with the single-treatment assay in accordance with the Chou–Talalay method. […] On day four of culture, an aliquot (100 µL) of lysis buffer mixed with 0.2μL/mL SG1 was added per well; subsequently, it was covered with aluminum foil to prevent exposure to light. After incubation for 6-h at 37 °C, fluorescence readings were acquired on a spectrofluorimeter (Fluoroskan Ascent, Thermo Fisher Scientific, Oceanside, CA, USA) with a 485 nm excitation wavelength and a 518 nm emission wavelength.
(§5) The IC50 values of ATR, DA, CF, and AV were established from the in vitro growth inhibition by nonlinear regression curve fit on a GraphPad Prism (GraphPad Software Inc., San Diego, CA, USA). […] The significant variations (p < 0.05) among group mean values on parasitemia and one-way ANOVA Tukey’s test in GraphPad Prism version 5.0 was used to analyze hematology profiles in mice infected with B. microti.

In another assay the test system is B. divergens. Described as above. It is filed as cell-based. Conditions: 96 h, 4 days culture, mean of triplicate experiments. How it is done: as §3, §4, §5
In another assay the test system is T. equi. The assay is described as above. Type of assay: cell-based. Particulars: 96 h, 4 days culture, mean of triplicate experiments. As to the method:
as §3, §4, §5

A further assay has as its system B. bovis. Described as above. Particulars: Bos taurus, 96 h, 4 days culture, mean of triplicate experiments. It is filed as cell-based. As to the method:
as §3, §4, §5

The next assay relates to NIH/3T3 cells. The experiment in a line: Cytotoxicity assay (CCK-8 cell viability). Type of assay: cell-based, mouse. As to the method: as §1, §2
A further assay concerns HFFs. Put plainly: Cytotoxicity assay (CCK-8 cell viability). Type of assay: cell-based, human. As to the method: as §1, §2

As to `CO[C@H]1/C=C\C=C(/C)C(=O)NC2=CC(=O)C(NCCN(C)C)=C(C[C@@H](C)C[C@H](OC)[C@H](O)[C@@H](C)/C=C(\C)[C@@H]1OC(N)=O)C2=O` [17-DMAG], the chemotherapeutic effect with B. microti was 89%.
Consider `CC(C)/N=c1\cc2n(-c3ccc(Cl)cc3)c3ccccc3nc-2cc1Nc1ccc(Cl)cc1` [CF, clofazimine], for which the EC50 in the assay on MDBK cells (Bos taurus, MDBK cells, 24 h, CCK-8) is 34.7 ± 3.4 µM; with NIH/3T3 cells (Mus musculus, NIH3T3, NIH/3T3 cells, 24 h, CCK-8, read-out: EC50 NIH/3T3) it was above 100 µM; in the assay on HFFs (Homo sapiens, HFFs, 24 h, CCK-8) it was above 100 µM. Besides, the “Selective Index MDBK” value with MDBK cells (EC50 MDBK / IC50 B. bigemina) is listed as 6.1; in the assay on MDBK cells (EC50 MDBK / IC50 B. bovis) it was 4.2; with MDBK cells (EC50 MDBK / IC50 B. caballi), 4.4; in the assay on MDBK cells (EC50 MDBK / IC50 B. divergens), 2.5; with MDBK cells (EC50 MDBK / IC50 T. equi), 12.1. Further, the IC50 was determined as 5.73 ± 1.9 µM with B. bigemina, 13.8 ± 4.3 µM with B. divergens, 2.88 ± 0.9 µM in the assay on T. equi and 8.24 ± 1.7 µM with B. bovis. The “Selective Index NIH/3T3” value with NIH/3T3 cells (EC50 NIH/3T3 / IC50 B. bigemina) is given as “˃17.5”; in the assay on NIH/3T3 cells (EC50 NIH/3T3 / IC50 B. bovis), “˃12.1”; in the assay on NIH/3T3 cells (EC50 NIH/3T3 / IC50 B. caballi), “˃12.6”; in the assay with NIH/3T3 cells (EC50 NIH/3T3 / IC50 B. divergens) it was “˃7.2”; with NIH/3T3 cells (EC50 NIH/3T3 / IC50 T. equi), “˃34.7”. Further, the “Selective Index HFFs” value is listed as “˃17.5” with HFFs (EC50 HFFs / IC50 B. bigemina); “˃12.1” in the assay with HFFs (EC50 HFFs / IC50 B. bovis); “˃12.6” in the assay on HFFs (EC50 HFFs / IC50 B. caballi); “˃7.2” with HFFs (EC50 HFFs / IC50 B. divergens); “˃34.7” in the assay on HFFs (EC50 HFFs / IC50 T. equi).
As to `C=CCS[S+]([O-])CC=C` (stereo not drawn) [allicin], the chemotherapeutic effect with B. microti is on record as 58.3%.
As for `O=c1oc2c(O)c(O)cc3c(=O)oc4c(O)c(O)cc1c4c23` [ellagic acid], the chemotherapeutic effect with B. microti is 49%.
On to `CCn1cc(C(=O)O)c(=O)c2cc(F)c(N3CCNCC3)nc21` [enoxacin], for which the chemotherapeutic effect in the assay with B. microti is given as 34%.
`COc1cc2c[n+](C)c3c4cc5c(cc4ccc3c2cc1OC)OCO5` [nitidine chloride]: the chemotherapeutic effect in the assay on B. microti is listed as 91%.
Take `CCn1cc(C(=O)O)c(=O)c2cc(F)c(N3CCNCC3)cc21` [norfloxacin]: in the assay with B. microti, the chemotherapeutic effect is listed as 31%.
On to `CC1COc2c(N3CCN(C)CC3)c(F)cc3c(=O)c(C(=O)O)cn1c23` (stereo not drawn) [ofloxacin], for which, in the assay with B. microti, the chemotherapeutic effect is 49%.
Consider `CC1=CC(=O)C(C(C)C)=CC1=O` [thymoquinone], for which the chemotherapeutic effect in the assay with B. microti was 37%.
